According to ChEMBL document CHEMBL1151857, “A new psoralen derivative with enlarged antiproliferative properties” (Bioorg Med Chem Lett, 2009):
Calls of active or inactive are those of the source. No cut-off for these calls is given here.

Tests used:
HeLa [1] = assay: Photo-antiproliferative activity against human HeLa cells exposed to 365 nm, 0.793 Jcm'-2 UVA light; assay type: functional, cell-based; settings: light or radiation study
HeLa [2] = assay: Photo-antiproliferative activity against human HeLa cells under dark condition; assay type: functional, cell-based
Nucleic Acid = assay: Binding affinity to DNA assessed as intercalation between base pairs by linear flow dichroism spectroscopy; assay type: nucleic-acid assay
Zone of skin = assay: Phototoxicity in depilated guinea pig skin assessed as formation of erythema; assay type: tissue-based, Cavia porcellus

Row | IC50 (HeLa [1]) | IC50 (HeLa [2]) | Activity (Nucleic Acid) | SMILES | Activity (Zone of skin)
1 | 2900 nM | 13.5 µM | Active | CN(C)CCCOc1c2oc(=O)ccc2cc2c1oc1nnccc12 | –
2 | – | > 20 µM | – | COc1c2occc2cc2ccc(=O)oc12 [METHOXSALEN] | Toxic
